Assay results taken from patent publication US10576145B2, “CD200 inhibitors and methods of use thereof” (REGENTS OF THE UNIVERSITY OF MINNESOTA, priority 2014, dated 2020).

Tested on: non-tumor bearing mice
Experiment: Vaccination of non-tumor bearing mice with OVA + glioma-derived exosomes + antagonist
Type: in vivo
Procedure: FIGS. 12A-12C. […] Tumor and non-tumor bearing mice were vaccinated with OVA+Poly:ICLC+/−the CD200R antagonist 6059 and analyzed for FIG. 12A) SIINFEKL/Kb+CD8+ T cell expansion (‘SIINFEKL’ disclosed as SEQ ID NO: 11). FIG. 12B) Lymphocytes were harvested and stimulated with SIINFEKL peptide (SEQ ID NO: 11). Supernatants were analyzed for TNFα and IFNγ secretion. FIG. 12C) The antagonist 6059 was added to OVA+exosomes. Error bars indicate +/−SEM (n=4/group; *P<0.05; by t-test). FIGS. 12A-12C discloses ‘SIINFEKL’ disclosed as SEQ ID NO: 11.
Whether the different antagonists described by Gorczynski et. al. (J Surg Res 2008; 145(1): 87-96) could modulate or reverse the suppressive effects of the tumor microenvironment was also investigated. It was concluded that different antagonists either act through different CD200R isoforms or have different biological effects on the same receptor. These conclusions were supported by experiments where splenocytes were pulsed with OVA+selected CD200R antagonists (6061, 6069, 4004, 4006, 4013) for 24 hours. The splenocytes were then washed and cultured for 48 hours with the addition of OT-1 T cells. The cultures were then assessed for cytokine production using a flow cytometric bead array. […] Other antagonists were similarly evaluated.

NTIGDGGCY [Antagonist 6059]
Suppression induced by glioma-derived exosomes: partially reversed the suppression induced by exosomes
